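Here, GI50 denotes the concentration required for 50% inhibition of growth. TGI marks complete inhibition of growth.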
Key:
Experiment in all cases: NCI tumour cell line growth inhibition, 384-well format
[1] = test system: SK-OV-3 ovarian
[2] = test system: HOP-92 NSCLC
[3] = test system: OVCAR-8 ovarian
[4] = test system: UACC-257 melanoma
[5] = test system: MCF7 breast
[6] = test system: CCRF-CEM leukemia
[7] = test system: OVCAR-5 ovarian
[8] = test system: OVCAR-4 ovarian
[9] = test system: 786-0 renal
[10] = test system: HOP-62 NSCLC
[11] = test system: SN12C renal
[12] = test system: A549 NSCLC
[13] = test system: UACC-62 melanoma
[14] = test system: NCI-H522 lung
[15] = test system: HT29 colon
[16] = test system: SR leukemia
[17] = test system: LOX IMVI melanoma
[18] = test system: NCI-H226 lung
[19] = test system: DU-145 prostate
[20] = test system: OVCAR-3 ovarian
[21] = test system: HL-60(TB) leukemia
[22] = test system: MOLT-4 leukemia
[23] = test system: NCI-H23 lung
[24] = test system: EKVX NSCLC
[25] = test system: SF-295 CNS
[26] = test system: NCI/ADR-RES ovarian
[27] = test system: U251 glioblastoma
[28] = test system: NCI-H322M lung
[29] = test system: NCI-H460 NSCLC
[30] = test system: SNB-75 CNS
[31] = test system: KM12 colon
[32] = test system: SK-MEL-5 melanoma
[33] = test system: HCT-15 colon
[34] = test system: SK-MEL-28 melanoma
[35] = test system: IGROV1 ovarian
[36] = test system: PC-3 prostate
[37] = test system: RXF 393 renal
[38] = test system: M14 melanoma
[39] = test system: CAKI-1 renal
[40] = test system: MDA-MB-231 breast
[41] = test system: HCT-116 colon
[42] = test system: A498 renal
[43] = test system: SW-620 colon
[44] = test system: MDA-MB-468 breast
[45] = test system: T-47D breast
[46] = test system: MALME-3M melanoma
[47] = test system: RPMI-8226 leukemia

Structure (SMILES): Cc1cc(C)c(CNC(=O)c2cc(-c3ccc(CN4CCOCC4)cc3)cc3c2cnn3C2CCCC2)c(=O)[nH]1
- GI50 [1]: 13.4 µM
- TGI [1]: 26.4 µM
- GI50 [2]: 6.29 µM
- TGI [2]: 17.1 µM
- GI50 [3]: 11 µM
- TGI [3]: 23.3 µM
- GI50 [4]: 2.23 µM
- TGI [4]: 4.96 µM
- GI50 [5]: 6.19 µM
- TGI [5]: 17.8 µM
- GI50 [6]: 3.42 µM
- TGI [6]: 8.99 µM
- GI50 [7]: 13.1 µM
- TGI [7]: 26 µM
- GI50 [8]: 12.9 µM
- TGI [8]: 25.8 µM
- GI50 [9]: 5.82 µM
- TGI [9]: 16.9 µM
- GI50 [10]: 6.39 µM
- TGI [10]: 17.4 µM
- GI50 [11]: 12.3 µM
- TGI [11]: 24.9 µM
- GI50 [12]: 6.65 µM
- TGI [12]: 17.7 µM
- GI50 [13]: 12.3 µM
- TGI [13]: 24.9 µM
- GI50 [14]: 15.3 µM
- TGI [14]: 28.7 µM
- GI50 [15]: 2.3 µM
- TGI [15]: 5.14 µM
- GI50 [16]: 2.41 µM
- TGI [16]: 5.85 µM
- GI50 [17]: 7.45 µM
- TGI [17]: 20.7 µM
- GI50 [18]: 12.9 µM
- TGI [18]: 25.9 µM
- GI50 [19]: 13.5 µM
- TGI [19]: 27.6 µM
- GI50 [20]: 4.83 µM
- TGI [20]: 17.5 µM
- GI50 [21]: 4.13 µM
- TGI [21]: 12.6 µM
- GI50 [22]: 3.02 µM
- TGI [22]: 7.94 µM
- GI50 [23]: 14.3 µM
- TGI [23]: 27.5 µM
- GI50 [24]: 3.41 µM
- TGI [24]: 21.6 µM
- GI50 [25]: 12 µM
- TGI [25]: 24.6 µM
- GI50 [26]: 11.6 µM
- TGI [26]: 24 µM
- GI50 [27]: 7.69 µM
- TGI [27]: 20.2 µM
- GI50 [28]: 12.1 µM
- TGI [28]: 24.8 µM
- GI50 [29]: 7.72 µM
- TGI [29]: 20.5 µM
- GI50 [30]: 7.97 µM
- TGI [30]: 21.2 µM
- GI50 [31]: 8.88 µM
- TGI [31]: 21.7 µM
- GI50 [32]: 5.47 µM
- TGI [32]: 13.9 µM
- GI50 [33]: 3.03 µM
- TGI [33]: 11.6 µM
- GI50 [34]: 9.62 µM
- TGI [34]: 21.9 µM
- GI50 [35]: 1.02 µM
- TGI [35]: 25 µM
- GI50 [36]: 8.37 µM
- TGI [36]: 20.8 µM
- GI50 [37]: 5.49 µM
- TGI [37]: 15.8 µM
- GI50 [38]: 6.87 µM
- TGI [38]: 17.6 µM
- GI50 [39]: 9.04 µM
- TGI [39]: 22.2 µM
- GI50 [40]: 8.35 µM
- TGI [40]: 21.4 µM
- GI50 [41]: 7.13 µM
- TGI [41]: 19.5 µM
- GI50 [42]: 3.92 µM
- TGI [42]: 15.4 µM
- GI50 [43]: 13.2 µM
- TGI [43]: 26.3 µM
- GI50 [44]: 0.0189 µM
- TGI [44]: 0.0459 µM
- GI50 [45]: 0.986 µM
- TGI [45]: 10.6 µM
- GI50 [46]: 5.49 µM
- TGI [46]: 15.9 µM
- GI50 [47]: 2.11 µM
- TGI [47]: 6.54 µM

From PubChem BioAssay (NCI)
